{
  "source": "patent US20240246942A1",
  "about": "“KINASE INHIBITORS FOR THE TREATMENT OF NEURODEGENERATIVE DISEASES” (priority 2020, published 2024)",
  "test_in_all_cases": "biochemical",
  "key": {"[1]": {"target": "T1, panel of 374 wild-type kinases (Homo sapiens, UniProt O14757)", "T1 construct": "purchased Reaction Biology Corporation", "T1 sequence (O14757 1-476)": "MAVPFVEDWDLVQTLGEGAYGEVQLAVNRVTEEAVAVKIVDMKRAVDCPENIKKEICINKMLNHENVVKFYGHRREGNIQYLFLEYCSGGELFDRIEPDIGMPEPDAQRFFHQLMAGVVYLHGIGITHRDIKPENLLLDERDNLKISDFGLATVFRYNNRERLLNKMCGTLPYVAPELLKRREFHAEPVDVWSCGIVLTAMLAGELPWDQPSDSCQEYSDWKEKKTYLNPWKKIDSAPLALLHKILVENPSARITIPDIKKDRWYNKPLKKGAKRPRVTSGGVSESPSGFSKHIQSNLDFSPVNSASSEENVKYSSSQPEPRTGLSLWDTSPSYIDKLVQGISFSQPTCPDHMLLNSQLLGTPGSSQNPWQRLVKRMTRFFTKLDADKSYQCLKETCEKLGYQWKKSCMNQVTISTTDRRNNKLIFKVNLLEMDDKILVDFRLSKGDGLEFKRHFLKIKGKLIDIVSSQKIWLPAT", "conditions": "read-out: % Enzyme Activity (relative to DMSO controls), CHK1"}, "[2]": {"target": "T2, panel of 374 wild-type kinases (Homo sapiens, UniProt P21802)", "T2 construct": "purchased Reaction Biology Corporation", "T2 sequence (P21802 22-821)": "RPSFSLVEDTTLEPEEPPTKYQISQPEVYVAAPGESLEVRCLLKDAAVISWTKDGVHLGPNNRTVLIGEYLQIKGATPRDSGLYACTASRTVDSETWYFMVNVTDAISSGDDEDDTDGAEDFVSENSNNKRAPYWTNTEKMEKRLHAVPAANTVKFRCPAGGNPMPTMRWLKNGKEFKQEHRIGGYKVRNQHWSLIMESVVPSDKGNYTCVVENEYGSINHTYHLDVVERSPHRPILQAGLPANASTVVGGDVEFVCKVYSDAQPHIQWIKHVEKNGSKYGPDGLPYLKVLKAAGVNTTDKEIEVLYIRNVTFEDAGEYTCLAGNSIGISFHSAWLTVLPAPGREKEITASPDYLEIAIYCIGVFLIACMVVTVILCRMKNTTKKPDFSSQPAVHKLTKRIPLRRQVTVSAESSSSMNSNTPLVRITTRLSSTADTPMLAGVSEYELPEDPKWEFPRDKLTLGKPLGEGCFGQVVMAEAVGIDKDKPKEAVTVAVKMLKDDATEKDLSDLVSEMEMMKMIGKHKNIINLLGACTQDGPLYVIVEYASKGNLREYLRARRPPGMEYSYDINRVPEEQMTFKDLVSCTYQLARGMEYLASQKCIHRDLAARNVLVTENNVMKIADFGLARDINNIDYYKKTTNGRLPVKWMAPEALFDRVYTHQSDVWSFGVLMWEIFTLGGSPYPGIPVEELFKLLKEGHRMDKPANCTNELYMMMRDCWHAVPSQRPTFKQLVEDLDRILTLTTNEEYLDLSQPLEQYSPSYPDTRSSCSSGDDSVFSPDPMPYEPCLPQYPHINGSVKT", "conditions": "read-out: % Enzyme Activity (relative to DMSO controls), FGFR2"}, "[3]": {"target": "T3, panel of 374 wild-type kinases (Homo sapiens, UniProt Q6VAB6)", "T3 construct": "purchased Reaction Biology Corporation", "T3 sequence (Q6VAB6 1-950)": "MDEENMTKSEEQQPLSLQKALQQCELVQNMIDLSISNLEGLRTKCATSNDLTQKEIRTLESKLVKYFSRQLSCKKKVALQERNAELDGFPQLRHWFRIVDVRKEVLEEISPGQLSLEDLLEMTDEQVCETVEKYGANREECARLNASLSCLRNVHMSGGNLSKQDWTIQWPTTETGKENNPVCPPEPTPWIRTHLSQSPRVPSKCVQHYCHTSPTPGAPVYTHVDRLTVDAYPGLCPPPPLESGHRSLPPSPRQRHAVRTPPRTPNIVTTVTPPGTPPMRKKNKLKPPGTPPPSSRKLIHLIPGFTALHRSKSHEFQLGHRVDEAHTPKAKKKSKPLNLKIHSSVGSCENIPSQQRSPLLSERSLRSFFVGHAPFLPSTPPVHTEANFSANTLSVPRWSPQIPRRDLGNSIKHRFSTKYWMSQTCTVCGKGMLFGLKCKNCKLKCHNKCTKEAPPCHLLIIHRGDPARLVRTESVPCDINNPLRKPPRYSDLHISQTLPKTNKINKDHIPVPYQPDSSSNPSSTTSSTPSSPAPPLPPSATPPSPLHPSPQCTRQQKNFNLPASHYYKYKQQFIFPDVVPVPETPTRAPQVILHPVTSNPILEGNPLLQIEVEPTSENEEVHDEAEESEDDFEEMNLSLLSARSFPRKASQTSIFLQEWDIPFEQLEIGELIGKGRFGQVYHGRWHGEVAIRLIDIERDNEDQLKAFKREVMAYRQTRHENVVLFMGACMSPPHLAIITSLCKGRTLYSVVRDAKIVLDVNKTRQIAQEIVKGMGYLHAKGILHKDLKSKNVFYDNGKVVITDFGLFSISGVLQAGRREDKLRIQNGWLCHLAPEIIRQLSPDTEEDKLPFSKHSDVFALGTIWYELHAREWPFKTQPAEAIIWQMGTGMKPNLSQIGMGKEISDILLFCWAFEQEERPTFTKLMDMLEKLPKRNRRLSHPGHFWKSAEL", "conditions": "read-out: % Enzyme Activity (relative to DMSO controls), KSR2"}, "[4]": {"target": "T4, panel of 374 wild-type kinases (Homo sapiens, UniProt O94806)", "T4 construct": "purchased Reaction Biology Corporation", "T4 sequence (O94806 1-890)": "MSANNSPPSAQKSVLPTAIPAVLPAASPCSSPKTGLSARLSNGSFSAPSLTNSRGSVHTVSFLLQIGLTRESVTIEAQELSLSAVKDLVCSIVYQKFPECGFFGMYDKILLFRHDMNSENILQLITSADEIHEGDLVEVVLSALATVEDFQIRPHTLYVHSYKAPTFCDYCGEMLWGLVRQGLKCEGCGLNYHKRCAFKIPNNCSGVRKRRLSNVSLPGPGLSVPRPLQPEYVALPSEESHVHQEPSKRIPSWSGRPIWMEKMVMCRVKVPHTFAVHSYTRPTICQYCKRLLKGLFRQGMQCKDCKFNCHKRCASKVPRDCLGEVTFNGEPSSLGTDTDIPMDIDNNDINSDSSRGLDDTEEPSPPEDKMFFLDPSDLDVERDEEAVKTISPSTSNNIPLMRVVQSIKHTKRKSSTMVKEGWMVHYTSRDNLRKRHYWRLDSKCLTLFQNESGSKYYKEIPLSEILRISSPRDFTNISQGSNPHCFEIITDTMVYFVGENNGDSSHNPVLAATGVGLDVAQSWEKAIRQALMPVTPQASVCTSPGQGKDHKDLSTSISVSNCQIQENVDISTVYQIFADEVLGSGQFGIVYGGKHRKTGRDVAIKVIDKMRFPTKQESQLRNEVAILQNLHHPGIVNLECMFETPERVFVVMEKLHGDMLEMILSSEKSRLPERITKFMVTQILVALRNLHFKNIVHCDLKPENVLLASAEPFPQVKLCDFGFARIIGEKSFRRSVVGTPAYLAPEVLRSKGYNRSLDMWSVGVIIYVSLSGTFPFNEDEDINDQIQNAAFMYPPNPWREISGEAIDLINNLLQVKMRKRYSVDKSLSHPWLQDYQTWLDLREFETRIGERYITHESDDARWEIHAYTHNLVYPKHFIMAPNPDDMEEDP", "conditions": "read-out: % Enzyme Activity (relative to DMSO controls), kinase PKCnu/PRKD3"}, "[5]": {"target": "T5, panel of 374 wild-type kinases (Homo sapiens, UniProt O75460)", "T5 construct": "purchased Reaction Biology Corporation", "T5 sequence (O75460 19-977)": "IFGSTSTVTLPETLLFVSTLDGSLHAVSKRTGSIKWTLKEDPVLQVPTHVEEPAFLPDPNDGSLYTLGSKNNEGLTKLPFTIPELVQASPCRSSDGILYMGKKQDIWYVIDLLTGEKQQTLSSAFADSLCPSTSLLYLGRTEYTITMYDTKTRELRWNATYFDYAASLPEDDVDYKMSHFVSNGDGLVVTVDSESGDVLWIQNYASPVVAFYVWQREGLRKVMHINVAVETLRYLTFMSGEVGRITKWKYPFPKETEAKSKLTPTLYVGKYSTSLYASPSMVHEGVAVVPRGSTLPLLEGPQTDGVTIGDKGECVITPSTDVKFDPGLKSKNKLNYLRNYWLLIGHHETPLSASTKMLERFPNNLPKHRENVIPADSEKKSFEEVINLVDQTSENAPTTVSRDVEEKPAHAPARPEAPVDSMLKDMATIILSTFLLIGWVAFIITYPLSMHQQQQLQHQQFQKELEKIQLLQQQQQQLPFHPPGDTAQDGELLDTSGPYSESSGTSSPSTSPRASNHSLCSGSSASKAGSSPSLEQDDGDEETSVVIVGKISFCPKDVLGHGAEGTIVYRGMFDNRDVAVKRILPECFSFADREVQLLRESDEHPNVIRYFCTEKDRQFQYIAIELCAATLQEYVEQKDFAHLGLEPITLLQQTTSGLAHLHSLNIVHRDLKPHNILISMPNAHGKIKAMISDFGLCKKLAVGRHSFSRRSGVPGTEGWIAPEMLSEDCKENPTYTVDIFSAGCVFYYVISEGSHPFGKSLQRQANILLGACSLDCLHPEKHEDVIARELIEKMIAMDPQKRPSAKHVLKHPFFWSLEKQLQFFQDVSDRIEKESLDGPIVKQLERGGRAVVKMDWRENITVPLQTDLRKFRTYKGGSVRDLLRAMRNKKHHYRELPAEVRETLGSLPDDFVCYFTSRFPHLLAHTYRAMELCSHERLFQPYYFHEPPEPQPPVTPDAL", "conditions": "read-out: % Enzyme Activity (relative to DMSO controls), ERN1/IRE1"}, "[6]": {"target": "T6, panel of 374 wild-type kinases (Homo sapiens, UniProt P31749)", "T6 construct": "purchased Reaction Biology Corporation", "T6 sequence (P31749 whole entry)": "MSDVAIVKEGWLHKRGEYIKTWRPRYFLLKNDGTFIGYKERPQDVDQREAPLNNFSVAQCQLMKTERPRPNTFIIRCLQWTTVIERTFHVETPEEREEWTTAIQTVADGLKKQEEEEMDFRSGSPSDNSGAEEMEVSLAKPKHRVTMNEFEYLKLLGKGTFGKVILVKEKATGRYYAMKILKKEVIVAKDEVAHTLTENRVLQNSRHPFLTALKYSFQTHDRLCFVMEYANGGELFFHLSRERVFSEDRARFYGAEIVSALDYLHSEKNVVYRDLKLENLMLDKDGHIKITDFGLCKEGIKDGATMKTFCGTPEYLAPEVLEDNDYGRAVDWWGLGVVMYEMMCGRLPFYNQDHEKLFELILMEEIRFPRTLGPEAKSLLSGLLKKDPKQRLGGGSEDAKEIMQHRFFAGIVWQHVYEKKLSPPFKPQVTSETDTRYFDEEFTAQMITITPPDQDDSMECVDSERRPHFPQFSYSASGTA", "conditions": "read-out: % Enzyme Activity (relative to DMSO controls), AKT1"}, "[7]": {"target": "T7, panel of 374 wild-type kinases (Homo sapiens, UniProt Q15569)", "T7 construct": "purchased Reaction Biology Corporation", "T7 sequence (Q15569 whole entry)": "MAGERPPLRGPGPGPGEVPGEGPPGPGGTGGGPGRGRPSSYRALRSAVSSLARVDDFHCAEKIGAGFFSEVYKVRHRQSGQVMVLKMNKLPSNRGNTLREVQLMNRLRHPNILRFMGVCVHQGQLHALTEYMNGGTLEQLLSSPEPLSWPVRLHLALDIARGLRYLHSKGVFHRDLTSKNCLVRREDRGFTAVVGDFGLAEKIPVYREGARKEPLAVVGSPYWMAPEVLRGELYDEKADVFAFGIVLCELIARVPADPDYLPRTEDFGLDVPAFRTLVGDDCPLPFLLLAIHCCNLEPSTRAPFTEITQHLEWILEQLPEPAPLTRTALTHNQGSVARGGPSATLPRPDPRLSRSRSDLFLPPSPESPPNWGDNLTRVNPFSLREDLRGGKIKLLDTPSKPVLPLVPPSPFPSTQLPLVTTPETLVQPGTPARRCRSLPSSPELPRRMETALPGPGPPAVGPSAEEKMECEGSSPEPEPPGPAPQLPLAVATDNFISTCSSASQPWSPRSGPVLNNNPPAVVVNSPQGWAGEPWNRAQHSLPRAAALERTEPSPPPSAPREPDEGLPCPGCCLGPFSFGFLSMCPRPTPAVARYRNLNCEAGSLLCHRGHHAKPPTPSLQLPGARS", "conditions": "read-out: % Enzyme Activity (relative to DMSO controls), kinase TESK1"}, "[8]": {"target": "T8, panel of 374 wild-type kinases (Homo sapiens, UniProt P53667)", "T8 construct": "purchased Reaction Biology Corporation", "T8 sequence (P53667 whole entry)": "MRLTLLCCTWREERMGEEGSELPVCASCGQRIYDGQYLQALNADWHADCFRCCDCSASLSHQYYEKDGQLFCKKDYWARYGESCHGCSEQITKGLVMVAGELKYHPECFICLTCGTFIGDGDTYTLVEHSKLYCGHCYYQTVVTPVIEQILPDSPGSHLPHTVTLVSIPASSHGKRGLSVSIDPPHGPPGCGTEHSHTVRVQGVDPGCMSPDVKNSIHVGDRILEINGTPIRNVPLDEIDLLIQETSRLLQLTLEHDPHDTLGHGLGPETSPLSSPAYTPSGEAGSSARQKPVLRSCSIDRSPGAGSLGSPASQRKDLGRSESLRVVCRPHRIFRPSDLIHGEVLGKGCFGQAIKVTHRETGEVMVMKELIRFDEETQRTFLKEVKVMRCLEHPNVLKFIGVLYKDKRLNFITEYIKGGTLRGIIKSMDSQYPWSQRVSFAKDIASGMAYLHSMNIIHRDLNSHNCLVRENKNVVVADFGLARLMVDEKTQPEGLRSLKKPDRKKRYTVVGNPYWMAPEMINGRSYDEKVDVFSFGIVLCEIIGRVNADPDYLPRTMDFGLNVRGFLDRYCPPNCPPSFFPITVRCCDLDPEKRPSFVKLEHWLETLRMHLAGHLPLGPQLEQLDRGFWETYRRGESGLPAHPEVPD", "conditions": "read-out: % Enzyme Activity (relative to DMSO controls), LIMK1"}},
  "data": [
    {"smiles": "O=C(Nc1cnn(-c2csc(C(=O)NC3COC3)c2)c1)Nc1ccccc1Cl", "note": "[Compound 17, 4-(4-(3-(2-chlorophenyl)ureido)-1H-pyrazol-1-yl)-N-(oxetan-3-yl)thiophene-2-carboxamide]", "values": [
      {"measurement": "remaining activity at 5 µM", "setting": "[1]", "value": 98.7, "unit": "%"},
      {"measurement": "remaining activity at 5 µM", "setting": "[2]", "value": 95.6, "unit": "%"},
      {"measurement": "remaining activity at 5 µM", "setting": "[3]", "value": 107, "unit": "%"},
      {"measurement": "remaining activity at 5 µM", "setting": "[4]", "value": 104, "unit": "%"},
      {"measurement": "remaining activity at 5 µM", "setting": "[5]", "value": 94.3, "unit": "%"},
      {"measurement": "remaining activity at 5 µM", "setting": "[6]", "value": 95.4, "unit": "%"},
      {"measurement": "remaining activity at 5 µM", "setting": "[7]", "value": 101, "unit": "%"},
      {"measurement": "remaining activity at 5 µM", "setting": "[8]", "value": 96.2, "unit": "%"}
    ]},
    {"smiles": "O=C(Nc1cnn(-c2csc(C(=O)NC3COC3)c2)c1)Nc1c(F)cccc1Cl", "note": "[Compound 25, 4-(4-(3-(2-chloro-6-fluorophenyl)ureido)-1H-pyrazol-1-yl)-N-(oxetan-3-yl)thiophene-2-carboxamide]", "values": [
      {"measurement": "remaining activity at 5 µM", "setting": "[1]", "value": 141, "unit": "%"},
      {"measurement": "remaining activity at 5 µM", "setting": "[2]", "value": 103, "unit": "%"},
      {"measurement": "remaining activity at 5 µM", "setting": "[3]", "value": 92.7, "unit": "%"},
      {"measurement": "remaining activity at 5 µM", "setting": "[4]", "value": 105, "unit": "%"},
      {"measurement": "remaining activity at 5 µM", "setting": "[5]", "value": 95.8, "unit": "%"},
      {"measurement": "remaining activity at 5 µM", "setting": "[6]", "value": 105, "unit": "%"},
      {"measurement": "remaining activity at 5 µM", "setting": "[7]", "value": 91, "unit": "%"},
      {"measurement": "remaining activity at 5 µM", "setting": "[8]", "value": 104, "unit": "%"}
    ]},
    {"smiles": "Cc1sc(C(=O)NC2COC2)cc1-n1cc(NC(=O)Nc2c(F)cccc2Cl)cn1", "note": "[Compound 27, 4-(4-(3-(2-chloro-6-fluorophenyl)ureido)-1H-pyrazol-1-yl)-5-methyl-N-(oxetan-3-yl)thiophene-2-carboxamide]", "values": [
      {"measurement": "remaining activity at 10 µM", "setting": "[1]; 10 uM", "value": 118, "unit": "%"},
      {"measurement": "remaining activity at 10 µM", "setting": "[2]; 10 uM", "value": 106, "unit": "%"},
      {"measurement": "remaining activity at 10 µM", "setting": "[3]; 10 uM", "value": 99.2, "unit": "%"},
      {"measurement": "remaining activity at 10 µM", "setting": "[4]; 10 uM", "value": 105, "unit": "%"},
      {"measurement": "remaining activity at 10 µM", "setting": "[5]; 10 uM", "value": 94.1, "unit": "%"},
      {"measurement": "remaining activity at 10 µM", "setting": "[6]; 10 uM", "value": 105, "unit": "%"},
      {"measurement": "remaining activity at 10 µM", "setting": "[7]; 10 uM", "value": 88.7, "unit": "%"},
      {"measurement": "remaining activity at 10 µM", "setting": "[8]; 10 uM", "value": 105, "unit": "%"}
    ]}
  ]
}
